Legend:
[1] = molecular target: Serine/threonine-protein kinase 3 (Homo sapiens) (UniProt Q13188); assay: Inhibition of human MST2 assessed as residual activity at 1 uM using RB-CTF as substrate in presence of 33P-ATP by ProQinase assay relative to control
[2] = test system: Receptor-type tyrosine-protein kinase FLT3 (Homo sapiens), P36888 [D835Y]; assay: Inhibition of human […] mutant assessed as residual activity at 1 uM using Poly(Ala,Glu,Lys,Tyr)6:2:5:1 as substrate in presence of 33P-ATP by ProQinase assay relative to control
[3] = molecular target: Serine/threonine-protein kinase MRCK alpha (Homo sapiens) (UniProt Q5VT25); assay: Inhibition of MRCKA (unknown origin) assessed as remaining activity at 1 uM by Kinome scan method relative to control
Sequence of Serine/threonine-protein kinase MRCK alpha (Homo sapiens) (Q5VT25 whole entry): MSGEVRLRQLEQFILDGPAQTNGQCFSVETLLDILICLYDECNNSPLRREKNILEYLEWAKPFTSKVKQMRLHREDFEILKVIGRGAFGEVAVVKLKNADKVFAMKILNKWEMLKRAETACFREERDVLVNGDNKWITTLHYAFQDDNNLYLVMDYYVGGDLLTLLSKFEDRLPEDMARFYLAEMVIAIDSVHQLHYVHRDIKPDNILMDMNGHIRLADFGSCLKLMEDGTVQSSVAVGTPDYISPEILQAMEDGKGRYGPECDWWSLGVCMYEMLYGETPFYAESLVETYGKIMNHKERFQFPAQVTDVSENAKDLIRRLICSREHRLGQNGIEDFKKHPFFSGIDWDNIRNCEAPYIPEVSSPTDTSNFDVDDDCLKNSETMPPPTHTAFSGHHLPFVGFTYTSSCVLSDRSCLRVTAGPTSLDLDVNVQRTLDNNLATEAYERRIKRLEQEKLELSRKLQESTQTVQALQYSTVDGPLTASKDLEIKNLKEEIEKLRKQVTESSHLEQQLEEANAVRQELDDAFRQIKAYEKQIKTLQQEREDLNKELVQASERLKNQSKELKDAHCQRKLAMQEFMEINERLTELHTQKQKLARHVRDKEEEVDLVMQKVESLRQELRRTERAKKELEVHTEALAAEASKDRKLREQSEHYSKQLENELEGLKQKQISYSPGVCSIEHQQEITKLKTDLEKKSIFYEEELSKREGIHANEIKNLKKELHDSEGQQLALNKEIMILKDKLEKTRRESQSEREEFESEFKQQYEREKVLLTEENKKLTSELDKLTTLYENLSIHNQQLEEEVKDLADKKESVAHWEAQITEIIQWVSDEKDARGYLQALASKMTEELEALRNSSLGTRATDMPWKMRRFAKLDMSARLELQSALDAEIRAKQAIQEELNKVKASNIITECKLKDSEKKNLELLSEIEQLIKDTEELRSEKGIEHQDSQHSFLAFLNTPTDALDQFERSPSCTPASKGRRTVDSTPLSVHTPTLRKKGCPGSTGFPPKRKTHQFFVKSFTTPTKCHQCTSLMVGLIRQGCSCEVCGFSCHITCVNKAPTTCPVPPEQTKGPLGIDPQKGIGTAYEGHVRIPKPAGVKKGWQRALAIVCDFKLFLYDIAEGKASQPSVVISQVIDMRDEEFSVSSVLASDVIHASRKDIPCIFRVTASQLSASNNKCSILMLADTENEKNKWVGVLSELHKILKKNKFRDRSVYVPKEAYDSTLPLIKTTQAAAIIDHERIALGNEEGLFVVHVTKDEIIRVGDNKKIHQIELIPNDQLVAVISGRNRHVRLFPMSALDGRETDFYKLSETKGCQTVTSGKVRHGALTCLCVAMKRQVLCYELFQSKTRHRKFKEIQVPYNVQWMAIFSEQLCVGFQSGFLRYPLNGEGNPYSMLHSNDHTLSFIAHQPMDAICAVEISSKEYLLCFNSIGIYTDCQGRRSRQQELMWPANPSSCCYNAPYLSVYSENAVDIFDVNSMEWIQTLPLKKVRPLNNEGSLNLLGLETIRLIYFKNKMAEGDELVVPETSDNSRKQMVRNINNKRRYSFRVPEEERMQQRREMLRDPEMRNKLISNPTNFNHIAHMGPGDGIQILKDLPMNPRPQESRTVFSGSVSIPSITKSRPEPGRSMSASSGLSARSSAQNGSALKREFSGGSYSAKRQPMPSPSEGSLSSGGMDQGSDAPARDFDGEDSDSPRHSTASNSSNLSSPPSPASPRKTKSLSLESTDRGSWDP

[4] = test system: Fibroblast growth factor receptor 1 (Homo sapiens), P11362 [V561M]; assay: Inhibition of human FGFR1 V561M mutant assessed as residual activity at 1 uM using Poly(Ala,Glu,Lys,Tyr)6:2:5:1 as substrate in presence of 33P-ATP by ProQinase assay relative to control
Sequence of Fibroblast growth factor receptor 1 (Homo sapiens), P11362 [V561M] (P11362 whole entry V561M): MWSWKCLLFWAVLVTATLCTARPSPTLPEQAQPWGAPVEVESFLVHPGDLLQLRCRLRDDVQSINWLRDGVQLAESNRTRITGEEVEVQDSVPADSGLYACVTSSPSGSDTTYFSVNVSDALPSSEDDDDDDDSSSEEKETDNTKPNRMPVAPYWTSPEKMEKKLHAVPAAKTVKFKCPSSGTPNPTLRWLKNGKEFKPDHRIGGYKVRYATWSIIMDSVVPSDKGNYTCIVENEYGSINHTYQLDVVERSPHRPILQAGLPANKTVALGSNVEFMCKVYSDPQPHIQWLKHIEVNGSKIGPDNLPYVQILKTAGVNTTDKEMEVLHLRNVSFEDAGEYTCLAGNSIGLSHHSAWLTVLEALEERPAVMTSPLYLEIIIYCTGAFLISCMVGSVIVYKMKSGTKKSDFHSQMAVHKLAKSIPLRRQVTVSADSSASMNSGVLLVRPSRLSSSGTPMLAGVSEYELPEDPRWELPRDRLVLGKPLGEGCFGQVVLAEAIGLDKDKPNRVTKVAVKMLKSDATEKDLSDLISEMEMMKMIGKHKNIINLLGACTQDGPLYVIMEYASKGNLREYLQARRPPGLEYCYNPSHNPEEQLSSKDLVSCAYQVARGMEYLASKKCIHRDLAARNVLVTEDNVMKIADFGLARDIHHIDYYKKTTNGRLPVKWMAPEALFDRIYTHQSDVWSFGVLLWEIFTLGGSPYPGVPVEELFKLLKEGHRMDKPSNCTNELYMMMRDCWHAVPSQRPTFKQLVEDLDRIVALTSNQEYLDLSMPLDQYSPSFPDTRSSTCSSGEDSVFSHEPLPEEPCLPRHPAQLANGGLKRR

[5] = test system: Mast/stem cell growth factor receptor Kit (Homo sapiens), P10721 [L576P]; assay: Inhibition of KIT L576P mutant (unknown origin) assessed as remaining activity at 1 uM by Kinome scan method relative to control
Sequence of Mast/stem cell growth factor receptor Kit (Homo sapiens), P10721 [L576P] (P10721 whole entry L576P): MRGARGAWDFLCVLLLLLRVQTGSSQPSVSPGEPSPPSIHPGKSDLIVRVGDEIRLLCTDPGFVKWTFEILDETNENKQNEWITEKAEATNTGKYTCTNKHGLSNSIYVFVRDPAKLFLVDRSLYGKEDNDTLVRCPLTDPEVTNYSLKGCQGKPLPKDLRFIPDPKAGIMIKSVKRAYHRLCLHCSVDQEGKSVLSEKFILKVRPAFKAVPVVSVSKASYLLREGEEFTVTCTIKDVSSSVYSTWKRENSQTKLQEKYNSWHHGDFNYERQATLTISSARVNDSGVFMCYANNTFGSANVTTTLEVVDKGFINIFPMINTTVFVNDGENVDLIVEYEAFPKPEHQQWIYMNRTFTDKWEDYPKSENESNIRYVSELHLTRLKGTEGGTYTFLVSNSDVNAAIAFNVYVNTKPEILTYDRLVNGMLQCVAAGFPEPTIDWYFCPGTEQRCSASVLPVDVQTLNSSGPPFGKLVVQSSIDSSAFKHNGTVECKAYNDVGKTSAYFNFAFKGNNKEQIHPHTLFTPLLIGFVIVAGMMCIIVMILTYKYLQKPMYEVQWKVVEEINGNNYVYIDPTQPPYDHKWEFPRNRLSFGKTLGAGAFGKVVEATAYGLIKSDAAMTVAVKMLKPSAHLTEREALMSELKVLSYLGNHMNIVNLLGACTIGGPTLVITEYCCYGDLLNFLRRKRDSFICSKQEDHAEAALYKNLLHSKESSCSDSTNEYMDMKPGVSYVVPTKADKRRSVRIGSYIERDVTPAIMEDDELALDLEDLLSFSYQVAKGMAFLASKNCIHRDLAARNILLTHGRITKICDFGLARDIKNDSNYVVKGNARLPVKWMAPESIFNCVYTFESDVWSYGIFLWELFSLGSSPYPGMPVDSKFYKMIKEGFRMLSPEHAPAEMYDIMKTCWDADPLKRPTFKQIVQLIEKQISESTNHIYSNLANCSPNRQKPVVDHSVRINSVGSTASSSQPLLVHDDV

[6] = molecular target: Dual specificity tyrosine-phosphorylation-regulated kinase 3 (Homo sapiens) (UniProt O43781); assay: Inhibition of human DYRK3 assessed as residual activity at 1 uM using RBER-IRStide as substrate in presence of 33P-ATP by ProQinase assay relative to control
Sequence of Dual specificity tyrosine-phosphorylation-regulated kinase 3 (Homo sapiens) (O43781 whole entry): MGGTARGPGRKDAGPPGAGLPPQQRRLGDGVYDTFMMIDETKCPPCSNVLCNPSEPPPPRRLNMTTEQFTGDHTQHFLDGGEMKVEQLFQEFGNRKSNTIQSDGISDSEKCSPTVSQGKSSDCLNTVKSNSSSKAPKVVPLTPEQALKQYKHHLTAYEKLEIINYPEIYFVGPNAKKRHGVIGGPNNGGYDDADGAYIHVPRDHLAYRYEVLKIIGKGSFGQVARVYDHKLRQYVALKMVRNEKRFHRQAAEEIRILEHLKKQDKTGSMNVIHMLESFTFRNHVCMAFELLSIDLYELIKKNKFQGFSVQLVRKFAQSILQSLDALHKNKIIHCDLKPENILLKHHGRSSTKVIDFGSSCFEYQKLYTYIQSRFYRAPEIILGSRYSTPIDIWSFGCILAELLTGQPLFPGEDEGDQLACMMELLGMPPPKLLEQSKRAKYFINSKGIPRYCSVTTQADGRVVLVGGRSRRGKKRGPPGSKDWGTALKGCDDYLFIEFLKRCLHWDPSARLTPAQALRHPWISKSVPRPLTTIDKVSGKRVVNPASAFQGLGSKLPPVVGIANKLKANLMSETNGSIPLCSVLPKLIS

[7] = molecular target: Serine/threonine-protein kinase 16 (Homo sapiens) (UniProt O75716); assay: Inhibition of human TSF1 assessed as residual activity at 1 uM using casein as substrate in presence of 33P-ATP by ProQinase assay relative to control
Sequence of Serine/threonine-protein kinase 16 (Homo sapiens) (O75716 whole entry): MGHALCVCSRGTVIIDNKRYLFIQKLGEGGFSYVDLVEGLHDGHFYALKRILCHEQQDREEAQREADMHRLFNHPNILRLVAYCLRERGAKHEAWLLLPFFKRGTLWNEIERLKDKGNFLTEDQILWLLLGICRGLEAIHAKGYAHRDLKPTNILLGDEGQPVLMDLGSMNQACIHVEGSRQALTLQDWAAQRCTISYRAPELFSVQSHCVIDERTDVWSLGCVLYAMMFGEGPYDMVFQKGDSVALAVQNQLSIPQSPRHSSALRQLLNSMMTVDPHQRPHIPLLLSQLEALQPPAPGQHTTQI

[8] = test system: Hepatocyte growth factor receptor (Homo sapiens), P08581 [Y1235D]; assay: Inhibition of human MET Y1235D mutant assessed as residual activity at 1 uM using PolyEY as substrate in presence of 33P-ATP by ProQinase assay relative to control
[9] = molecular target: T1, Serine/threonine-protein kinase TAO3 (Homo sapiens) (UniProt Q9H2K8); assay: Inhibition of human TAOK3 assessed as residual activity at 1 uM using 3xChocktide-PKC(19-31) as substrate in presence of 33P-ATP by ProQinase assay relative to control
T1 sequence (whole entry): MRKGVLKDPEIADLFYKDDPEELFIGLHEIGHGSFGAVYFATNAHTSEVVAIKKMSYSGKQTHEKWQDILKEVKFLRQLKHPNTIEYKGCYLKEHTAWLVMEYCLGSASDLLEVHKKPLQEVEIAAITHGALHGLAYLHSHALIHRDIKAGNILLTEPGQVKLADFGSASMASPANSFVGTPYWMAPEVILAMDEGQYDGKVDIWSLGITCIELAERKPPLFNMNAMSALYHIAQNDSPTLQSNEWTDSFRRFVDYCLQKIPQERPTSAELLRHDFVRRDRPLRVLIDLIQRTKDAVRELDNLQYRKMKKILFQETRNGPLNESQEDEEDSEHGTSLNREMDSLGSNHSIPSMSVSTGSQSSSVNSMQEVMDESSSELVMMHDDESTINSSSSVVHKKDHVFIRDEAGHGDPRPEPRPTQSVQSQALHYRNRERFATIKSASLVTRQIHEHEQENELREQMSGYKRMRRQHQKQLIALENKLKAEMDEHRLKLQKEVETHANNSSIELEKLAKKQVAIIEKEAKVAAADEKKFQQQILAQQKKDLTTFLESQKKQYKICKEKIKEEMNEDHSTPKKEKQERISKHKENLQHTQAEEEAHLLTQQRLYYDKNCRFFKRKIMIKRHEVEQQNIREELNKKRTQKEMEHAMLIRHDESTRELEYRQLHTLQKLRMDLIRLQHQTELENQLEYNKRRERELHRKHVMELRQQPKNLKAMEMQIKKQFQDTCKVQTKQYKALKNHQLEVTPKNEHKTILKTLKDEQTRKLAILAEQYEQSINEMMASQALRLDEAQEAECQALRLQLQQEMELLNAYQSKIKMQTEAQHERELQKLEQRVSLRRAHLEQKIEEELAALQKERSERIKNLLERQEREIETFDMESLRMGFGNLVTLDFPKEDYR

Sequence of Serine/threonine-protein kinase 3 (Homo sapiens) (Q13188 whole entry): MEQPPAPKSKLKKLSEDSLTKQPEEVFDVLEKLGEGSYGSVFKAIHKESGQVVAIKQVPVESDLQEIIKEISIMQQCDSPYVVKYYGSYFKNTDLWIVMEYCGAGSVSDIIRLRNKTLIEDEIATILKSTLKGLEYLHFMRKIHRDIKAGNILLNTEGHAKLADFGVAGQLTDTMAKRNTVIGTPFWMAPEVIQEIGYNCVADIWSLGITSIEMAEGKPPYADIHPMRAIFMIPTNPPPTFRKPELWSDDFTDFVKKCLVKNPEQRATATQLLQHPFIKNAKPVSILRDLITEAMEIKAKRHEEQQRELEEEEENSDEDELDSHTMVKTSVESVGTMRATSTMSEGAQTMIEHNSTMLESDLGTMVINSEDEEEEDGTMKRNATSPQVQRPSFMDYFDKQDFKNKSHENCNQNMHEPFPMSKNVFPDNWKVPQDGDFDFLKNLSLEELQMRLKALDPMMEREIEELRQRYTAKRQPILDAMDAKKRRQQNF

`O=C1c2ccc(Nc3ccc(F)cc3F)cc2CCc2ccc(OC[C@H](O)CO)cc21` [Skepinone-L] gave an Activity [1] of 83%, an Activity [2] of 101% and an Activity [3] of 100%. The Activity [4] was 89%, the Activity [5] was 98% and the Activity [6] was 98%. It also gave an Activity [7] of 94%, an Activity [8] of 114% and an Activity [9] of 102%.
